Measurements taken from PubChem BioAssay AID2060508 (Molecular Pharmacology Branch, DTP, NCI, 2025).

tested on: 454973-116-R2-J3-PDC spheroids, viability, % test/control; assay: Anticancer human tumor 454973-116-R2-J3-PDC patient-derived pancreatic carcinoma cell line growth inhibition [GQUAD]; settings: second compound 0.1 µM; first compound 1 µM; stronger effect = lower value; spheroids with HUVEC and MSC
Method in brief: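 Tumor cells were grown as complex spheroids with HUVEC endothelial cells and mesenchymal stem cells as stroma. G-quadruplex stabilizers were combined with targeted agents over half-log dilutions from near the clinical Cmax, or from 10 microM.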
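Also: spheroids exposed to compounds for seven days; 100% = DMSO vehicle control viability.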

Compared with `C#Cc1c(F)ccc2cc(O)cc(-c3ncc4c(N5CC6CCC(C5)N6)nc(OCC56CCCN5CC(F)C6)nc4c3F)c12` (configuration not stated) + Cc1cnc(CNC(=O)c2c(=O)c3ccc(N4CCCN(C)CC4)nc3n3c2sc2ccccc23)cn1, `C=CCn1c(=O)c2cnc(Nc3ccc(N4CCN(C)CC4)cc3)nc2n1-c1cccc(C(C)(C)O)n1` + Cc1cnc(CNC(=O)c2c(=O)c3ccc(N4CCCN(C)CC4)nc3n3c2sc2ccccc23)cn1 is lower in viability, T/C: 20.1% for the first, 12% for the second.

Going from `CC(C)(O)C1CCC(Nc2ccc3ncc(-c4cccc(C(F)(F)F)c4)n3n2)CC1` (configuration not stated) + Cc1cnc(CNC(=O)c2c(=O)c3ccc(N4CCCN(C)CC4)nc3n3c2sc2ccccc23)cn1 to `O=C(NO)c1cnc(N2CCN(S(=O)(=O)c3ccc4ccccc4c3)CC2)nc1` + Cc1cnc(CNC(=O)c2c(=O)c3ccc(N4CCCN(C)CC4)nc3n3c2sc2ccccc23)cn1, the viability, T/C falls from 65.4% to 1.02%.

same assay, conditions: second compound 0.1 µM; first compound 3.16 µM; stronger effect = lower value; spheroids with HUVEC and MSC

First: C#Cc1c(F)ccc2cc(O)cc(-c3ncc4c(N5CC6CCC(C5)N6)nc(OCC56CCCN5CC(F)C6)nc4c3F)c12 (configuration not stated) + Cc1cnc(CNC(=O)c2c(=O)c3ccc(N4CCCN(C)CC4)nc3n3c2sc2ccccc23)cn1
Second: C=CCn1c(=O)c2cnc(Nc3ccc(N4CCN(C)CC4)cc3)nc2n1-c1cccc(C(C)(C)O)n1 + Cc1cnc(CNC(=O)c2c(=O)c3ccc(N4CCCN(C)CC4)nc3n3c2sc2ccccc23)cn1
The viability, T/C of the first is higher: 17.1% for the first, 8.47% for the second.

Compared with `CC(C)(O)C1CCC(Nc2ccc3ncc(-c4cccc(C(F)(F)F)c4)n3n2)CC1` (configuration not stated) + Cc1cnc(CNC(=O)c2c(=O)c3ccc(N4CCCN(C)CC4)nc3n3c2sc2ccccc23)cn1, `O=C(NO)c1cnc(N2CCN(S(=O)(=O)c3ccc4ccccc4c3)CC2)nc1` + Cc1cnc(CNC(=O)c2c(=O)c3ccc(N4CCCN(C)CC4)nc3n3c2sc2ccccc23)cn1 is lower in viability, T/C: 22% for the first, 0.59% for the second.

same assay, conditions: second compound 0.1 µM; first compound 10 µM; stronger effect = lower value; spheroids with HUVEC and MSC

Compared with `C#Cc1c(F)ccc2cc(O)cc(-c3ncc4c(N5CC6CCC(C5)N6)nc(OCC56CCCN5CC(F)C6)nc4c3F)c12` (configuration not stated) + Cc1cnc(CNC(=O)c2c(=O)c3ccc(N4CCCN(C)CC4)nc3n3c2sc2ccccc23)cn1, `C=CCn1c(=O)c2cnc(Nc3ccc(N4CCN(C)CC4)cc3)nc2n1-c1cccc(C(C)(C)O)n1` + Cc1cnc(CNC(=O)c2c(=O)c3ccc(N4CCCN(C)CC4)nc3n3c2sc2ccccc23)cn1 is lower in viability, T/C: 16.1% for the first, 8.54% for the second.

Compared with `CC(C)(O)C1CCC(Nc2ccc3ncc(-c4cccc(C(F)(F)F)c4)n3n2)CC1` (configuration not stated) + Cc1cnc(CNC(=O)c2c(=O)c3ccc(N4CCCN(C)CC4)nc3n3c2sc2ccccc23)cn1, `O=C(NO)c1cnc(N2CCN(S(=O)(=O)c3ccc4ccccc4c3)CC2)nc1` + Cc1cnc(CNC(=O)c2c(=O)c3ccc(N4CCCN(C)CC4)nc3n3c2sc2ccccc23)cn1 is lower in viability, T/C: 27.6% for the first, 0.1% for the second.

same assay, conditions: second compound 0.316 µM; first compound 0.000999 µM; stronger effect = lower value; spheroids with HUVEC and MSC

Compound `Cc1[nH]c2ccccc2c1CCNCc1ccc(/C=C/C(=O)NO)cc1` + Cc1cnc(CNC(=O)c2c(=O)c3ccc(N4CCCN(C)CC4)nc3n3c2sc2ccccc23)cn1 has a viability, T/C of 69.7%.

same assay, conditions: second compound 0.316 µM; first compound 0.00316 µM; stronger effect = lower value; spheroids with HUVEC and MSC

`Cc1[nH]c2ccccc2c1CCNCc1ccc(/C=C/C(=O)NO)cc1` + Cc1cnc(CNC(=O)c2c(=O)c3ccc(N4CCCN(C)CC4)nc3n3c2sc2ccccc23)cn1 showed a viability, T/C of 71.8%.

same assay, conditions: second compound 0.316 µM; first compound 0.00999 µM; stronger effect = lower value; spheroids with HUVEC and MSC

`Cc1[nH]c2ccccc2c1CCNCc1ccc(/C=C/C(=O)NO)cc1` + Cc1cnc(CNC(=O)c2c(=O)c3ccc(N4CCCN(C)CC4)nc3n3c2sc2ccccc23)cn1 gave a viability, T/C of 74.2%.

same assay, conditions: second compound 0.316 µM; first compound 0.0316 µM; stronger effect = lower value; spheroids with HUVEC and MSC

Compared with `C#Cc1c(F)ccc2cc(O)cc(-c3ncc4c(N5CC6CCC(C5)N6)nc(OCC56CCCN5CC(F)C6)nc4c3F)c12` (configuration not stated) + Cc1cnc(CNC(=O)c2c(=O)c3ccc(N4CCCN(C)CC4)nc3n3c2sc2ccccc23)cn1, `C=CCn1c(=O)c2cnc(Nc3ccc(N4CCN(C)CC4)cc3)nc2n1-c1cccc(C(C)(C)O)n1` + Cc1cnc(CNC(=O)c2c(=O)c3ccc(N4CCCN(C)CC4)nc3n3c2sc2ccccc23)cn1 is higher in viability, T/C: 41.7% for the first, 57.6% for the second.

First: CC(C)(O)C1CCC(Nc2ccc3ncc(-c4cccc(C(F)(F)F)c4)n3n2)CC1 (configuration not stated) + Cc1cnc(CNC(=O)c2c(=O)c3ccc(N4CCCN(C)CC4)nc3n3c2sc2ccccc23)cn1
Second: O=C(NO)c1cnc(N2CCN(S(=O)(=O)c3ccc4ccccc4c3)CC2)nc1 + Cc1cnc(CNC(=O)c2c(=O)c3ccc(N4CCCN(C)CC4)nc3n3c2sc2ccccc23)cn1
The viability, T/C of the first is higher: 82.8% for the first, 67.4% for the second.

With `Cc1[nH]c2ccccc2c1CCNCc1ccc(/C=C/C(=O)NO)cc1` + Cc1cnc(CNC(=O)c2c(=O)c3ccc(N4CCCN(C)CC4)nc3n3c2sc2ccccc23)cn1 the viability, T/C was 67.1%.

same assay, conditions: second compound 0.316 µM; first compound 0.0999 µM; stronger effect = lower value; spheroids with HUVEC and MSC

`Cc1[nH]c2ccccc2c1CCNCc1ccc(/C=C/C(=O)NO)cc1` + Cc1cnc(CNC(=O)c2c(=O)c3ccc(N4CCCN(C)CC4)nc3n3c2sc2ccccc23)cn1 was tested, and the viability, T/C was 24.9%.

same assay, conditions: second compound 0.316 µM; first compound 0.1 µM; stronger effect = lower value; spheroids with HUVEC and MSC

Compared with `C#Cc1c(F)ccc2cc(O)cc(-c3ncc4c(N5CC6CCC(C5)N6)nc(OCC56CCCN5CC(F)C6)nc4c3F)c12` (configuration not stated) + Cc1cnc(CNC(=O)c2c(=O)c3ccc(N4CCCN(C)CC4)nc3n3c2sc2ccccc23)cn1, `C=CCn1c(=O)c2cnc(Nc3ccc(N4CCN(C)CC4)cc3)nc2n1-c1cccc(C(C)(C)O)n1` + Cc1cnc(CNC(=O)c2c(=O)c3ccc(N4CCCN(C)CC4)nc3n3c2sc2ccccc23)cn1 is higher in viability, T/C: 24.4% for the first, 49.7% for the second.

Compared with `CC(C)(O)C1CCC(Nc2ccc3ncc(-c4cccc(C(F)(F)F)c4)n3n2)CC1` (configuration not stated) + Cc1cnc(CNC(=O)c2c(=O)c3ccc(N4CCCN(C)CC4)nc3n3c2sc2ccccc23)cn1, `O=C(NO)c1cnc(N2CCN(S(=O)(=O)c3ccc4ccccc4c3)CC2)nc1` + Cc1cnc(CNC(=O)c2c(=O)c3ccc(N4CCCN(C)CC4)nc3n3c2sc2ccccc23)cn1 is lower in viability, T/C: 69.2% for the first, 61.9% for the second.

same assay, conditions: second compound 0.316 µM; first compound 0.316 µM; stronger effect = lower value; spheroids with HUVEC and MSC

Going from `C#Cc1c(F)ccc2cc(O)cc(-c3ncc4c(N5CC6CCC(C5)N6)nc(OCC56CCCN5CC(F)C6)nc4c3F)c12` (configuration not stated) + Cc1cnc(CNC(=O)c2c(=O)c3ccc(N4CCCN(C)CC4)nc3n3c2sc2ccccc23)cn1 to `C=CCn1c(=O)c2cnc(Nc3ccc(N4CCN(C)CC4)cc3)nc2n1-c1cccc(C(C)(C)O)n1` + Cc1cnc(CNC(=O)c2c(=O)c3ccc(N4CCCN(C)CC4)nc3n3c2sc2ccccc23)cn1, the viability, T/C rises from 17.4% to 37.2%.
